Assay results published in ChEMBL document CHEMBL1201862, “PubChem BioAssay data set” (2004).
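Assay format: 96-well plates, 48-hour exposure. GI50: concentration for 50% inhibition of growth.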 Active and inactive are the calls of the source. Rule as the data show it: active = GI50 up to about 1.1 µM and inactive = higher.

Columns and labels:
Test in all cases: NCI tumour cell line growth inhibition, 48 h
[1] = test system: RPMI-8226
[2] = test system: EKVX
[3] = test system: RXF 393
[4] = test system: M14
[5] = test system: MCF7
[6] = test system: NCI-H23
[7] = test system: COLO 205
[8] = test system: BT-549
[9] = test system: MOLT-4
[10] = test system: SK-MEL-2
[11] = test system: OVCAR-4
[12] = test system: SK-OV-3
[13] = test system: SN12C
[14] = test system: K562
[15] = test system: DU-145
[16] = test system: CAKI-1
[17] = test system: NCI/ADR-RES
[18] = test system: NCI-H460
[19] = test system: MDA-MB-231
[20] = test system: A549
[21] = test system: Malme-3M
[22] = test system: U-251
[23] = test system: T47D
[24] = test system: OVCAR-8
[25] = test system: SF-539
[26] = test system: SW-620
[27] = test system: SNB-75
[28] = test system: SK-MEL-28
[29] = test system: 786-0
[30] = test system: OVCAR-5
[31] = test system: HCT-15
[32] = test system: LOX IMVI
[33] = test system: HT-29
[34] = test system: SK-MEL-5
[35] = test system: IGROV-1
[36] = test system: HOP-92
[37] = test system: OVCAR-3
[38] = test system: TK-10
[39] = test system: PC-3
[40] = test system: UACC-257
[41] = test system: MDA-MB-435
[42] = test system: NCI-H226
[43] = test system: MDA-N
[44] = test system: UACC-62
[45] = test system: SF-268
[46] = test system: KM12
[47] = test system: CCRF-CEM
[48] = test system: HOP-62
[49] = test system: HCC 2998
[50] = test system: HCT-116
[51] = test system: A498
[52] = test system: SF-295
[53] = test system: HL-60
[54] = test system: SNB-19
[55] = test system: ACHN
[56] = test system: NCI-H522
[57] = test system: UO-31
[58] = test system: SR
[59] = test system: Hs-578T

In the case of `CCOC(=O)c1nc2cc(C(F)(F)F)ccc2nc1Nc1ccc(F)cc1`, the GI50 [1] is reported as 6.21 µM (inactive), the GI50 [2] is reported as 68.2 µM (inactive) and the GI50 [3] is reported as 53.5 µM (inactive). The GI50 [4] was 49.4 µM (inactive), the GI50 [5] was 85.5 µM (inactive) and the GI50 [6] was 74.1 µM (inactive). For the same molecule, the GI50 [7] was 97.3 µM (inactive), the GI50 [8] was 25.9 µM (inactive) and the GI50 [9] was > 10 µM (inactive). The GI50 [10] was > 100 µM (inactive), the GI50 [11] was 23.6 µM (inactive) and the GI50 [12] was 94.4 µM (inactive). The GI50 [13] was > 100 µM (inactive), the GI50 [14] was 13.3 µM (inactive) and the GI50 [15] was > 100 µM (inactive). The GI50 [16] was > 100 µM (inactive), the GI50 [17] was 72.1 µM (inactive) and the GI50 [18] was 18.2 µM (inactive). For the same molecule, the GI50 [19] was > 100 µM (inactive), the GI50 [20] was 18 µM (inactive) and the GI50 [21] was > 100 µM (inactive). The GI50 [22] was 24.5 µM (inactive), the GI50 [23] was > 100 µM (inactive) and the GI50 [24] was 39 µM (inactive). The GI50 [25] was 19.5 µM (inactive), the GI50 [26] was 74.1 µM (inactive) and the GI50 [27] was 58.2 µM (inactive). For the same molecule, the GI50 [28] was > 100 µM (inactive), the GI50 [29] was > 100 µM (inactive) and the GI50 [30] was > 100 µM (inactive). The GI50 [31] was 37.4 µM, the GI50 [32] was > 100 µM (inactive) and the GI50 [33] was 97.9 µM (inactive). The GI50 [34] was 47.8 µM (inactive), the GI50 [35] was 34.8 µM (inactive) and the GI50 [36] was 10.8 µM (inactive). For the same molecule, the GI50 [37] was 44.8 µM (inactive), the GI50 [38] was 73.5 µM (inactive) and the GI50 [39] was 32.8 µM (inactive). The GI50 [40] was > 100 µM (inactive), the GI50 [41] was > 100 µM (inactive) and the GI50 [42] was 41.1 µM (inactive). For the same molecule, the GI50 [43] was > 100 µM (inactive), the GI50 [44] was 25.5 µM (inactive) and the GI50 [45] was > 100 µM (inactive). The GI50 [46] was > 100 µM (inactive), the GI50 [47] was 19.5 µM (inactive) and the GI50 [48] was 96.6 µM (inactive). For the same molecule, the GI50 [49] was 19.6 µM (inactive), the GI50 [50] was 96.8 µM (inactive) and the GI50 [51] was 28.6 µM (inactive). For the same molecule, the GI50 [52] was 47.2 µM (inactive).
With `O=C1c2ccccc2CC12Cc1cc3c(cc1C2)CCC3` the GI50 [1] was 32 µM (inactive), the GI50 [53] was 24 µM (inactive) and the GI50 [54] was > 100 µM (inactive). For the same molecule, the GI50 [55] was 43.3 µM (inactive), the GI50 [2] was 99.3 µM (inactive) and the GI50 [3] was 40.6 µM (inactive). The GI50 [4] was 19.5 µM (inactive), the GI50 [5] was 34.5 µM (inactive) and the GI50 [6] was > 100 µM (inactive). For the same molecule, the GI50 [7] was 31.3 µM (inactive), the GI50 [56] was 30.5 µM (inactive) and the GI50 [9] was 22.6 µM (inactive). The GI50 [10] was 31.2 µM (inactive), the GI50 [11] was > 100 µM (inactive) and the GI50 [12] was > 100 µM (inactive). The GI50 [13] was 59.7 µM (inactive), the GI50 [14] was 86.7 µM (inactive) and the GI50 [15] was > 100 µM (inactive). For the same molecule, the GI50 [16] was > 100 µM (inactive), the GI50 [17] was 44 µM (inactive) and the GI50 [18] was 39.9 µM (inactive). The GI50 [19] was > 100 µM (inactive), the GI50 [20] was > 100 µM (inactive) and the GI50 [21] was 22.7 µM (inactive). For the same molecule, the GI50 [57] was 69.3 µM (inactive), the GI50 [22] was 43.1 µM (inactive) and the GI50 [23] was > 100 µM (inactive). For the same molecule, the GI50 [24] was > 100 µM (inactive), the GI50 [25] was > 100 µM (inactive) and the GI50 [26] was 78.2 µM (inactive). The GI50 [27] was 33.3 µM (inactive), the GI50 [28] was 45.8 µM (inactive) and the GI50 [29] was 94.4 µM (inactive). For the same molecule, the GI50 [30] was > 100 µM (inactive), the GI50 [31] was 43.2 µM and the GI50 [32] was 57.1 µM (inactive). For the same molecule, the GI50 [33] was 21.9 µM (inactive), the GI50 [34] was 20.5 µM (inactive) and the GI50 [35] was 87.3 µM (inactive). The GI50 [36] was 37.6 µM (inactive), the GI50 [37] was 31.6 µM (inactive) and the GI50 [38] was > 100 µM (inactive). For the same molecule, the GI50 [39] was 39.8 µM (inactive), the GI50 [40] was 31.9 µM (inactive) and the GI50 [41] was 34 µM (inactive). For the same molecule, the GI50 [42] was 15.9 µM (inactive), the GI50 [58] was 16.7 µM (inactive) and the GI50 [43] was 37.5 µM (inactive). The GI50 [45] was > 100 µM (inactive), the GI50 [46] was 53.5 µM (inactive) and the GI50 [47] was 55.3 µM (inactive). The GI50 [48] was > 100 µM (inactive), the GI50 [49] was 57.5 µM (inactive) and the GI50 [50] was 30.6 µM (inactive). The GI50 [51] was 84.1 µM (inactive), the GI50 [59] was > 100 µM (inactive) and the GI50 [52] was > 100 µM (inactive).
